Target: T1, IκB kinase alpha (IKKα) (Homo sapiens, UniProt O15111)
T1 construct: gene CHUK
T1 sequence (O15111 1-745): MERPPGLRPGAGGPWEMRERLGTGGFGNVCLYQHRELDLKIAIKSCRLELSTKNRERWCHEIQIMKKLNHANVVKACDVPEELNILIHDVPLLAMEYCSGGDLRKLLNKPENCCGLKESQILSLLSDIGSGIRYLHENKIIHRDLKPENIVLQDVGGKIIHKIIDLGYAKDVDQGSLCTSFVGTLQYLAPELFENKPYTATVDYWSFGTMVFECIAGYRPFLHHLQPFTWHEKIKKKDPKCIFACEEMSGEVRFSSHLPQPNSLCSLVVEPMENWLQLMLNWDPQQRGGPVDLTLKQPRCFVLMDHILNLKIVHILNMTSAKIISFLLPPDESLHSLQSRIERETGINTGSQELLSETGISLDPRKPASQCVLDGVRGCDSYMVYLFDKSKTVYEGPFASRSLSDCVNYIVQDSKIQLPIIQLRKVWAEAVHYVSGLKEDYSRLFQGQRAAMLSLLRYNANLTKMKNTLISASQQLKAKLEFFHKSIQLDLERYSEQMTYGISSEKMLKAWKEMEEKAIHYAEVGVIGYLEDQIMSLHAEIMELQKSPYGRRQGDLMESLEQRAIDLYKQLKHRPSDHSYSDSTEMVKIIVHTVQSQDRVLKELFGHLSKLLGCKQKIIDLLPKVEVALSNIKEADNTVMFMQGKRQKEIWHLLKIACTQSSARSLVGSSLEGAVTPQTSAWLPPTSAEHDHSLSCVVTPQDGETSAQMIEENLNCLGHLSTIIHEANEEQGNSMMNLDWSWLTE
Assay: target engagement in PC3m cells by pharmacodynamic markers (p100 phosphorylation; RelB nuclear translocation), data not shown
Format: cell-based

SU1644
IC50: 50 nM

Source: publication PMC13185748, “Targeting noncanonical nuclear factor kappa B signalling in CYLD cutaneous syndrome by selective inhibition of IκB kinase alpha” (The British Journal of Dermatology, 2026)
